Assay results: a melting point compilation (Tetko et al.; mined from patent text by program, amines drawn as free bases though some values may be those of a salt)

SMILES	melting point [°C]
Cc1cc(-c2ccc(Cl)cc2)nc2c(-c3nc(-c4cccc(S(N)(=O)=O)c4)no3)cnn12	275
CC1NC(=O)NN=C1c1ccc(N2CCCC2)cc1 (configuration not stated)	276 to 281
CC1CC(c2cc3c(C(F)(F)F)cccc3s2)CCN1 (configuration not stated)	106 to 108
S=C1CN=C(c2ccc(Cl)cc2)c2cc(I)ccc2N1	260 to 262
O=C(NC(=O)N(SC(Cl)(Cl)Cl)c1ccc(C(F)(F)F)cc1)c1c(F)cccc1F	129 to 130
CN(C)c1ccnc(-c2ccncc2)n1	109 to 110
COc1cc(C=O)c(Br)c(OC)c1OC	69
Cc1onc(-c2ccccc2)c1-c1csc(NC(=O)C(N)=O)n1	204 to 205
CC(C)(C)OC(=O)CCC(CCC(=O)OC(C)(C)C)(CCC(=O)OC(C)(C)C)NC(=O)C=C=C[N+](=O)[O-]	140 to 141
CC(C)Oc1nc2cc([N+](=O)[O-])c(-n3ccc(=O)cc3)cc2[nH]c1=NC#N	> 300
CC(=O)C1C2=CCC3C(CCC4(C)C(O)C(O)CC34)C2(C)CCC1O (configuration not stated)	152 to 153
NS(=O)(=O)c1ccc(-c2noc(-c3cnn4c(C5CC5)cc(-c5ccc(C(F)(F)F)cc5)nc34)n2)cc1	313
CC(=O)SC1CC(=O)N1C(C(=O)OCc1ccc([N+](=O)[O-])cc1)=P(c1ccccc1)(c1ccccc1)c1ccccc1 (configuration not stated)	154 to 155
CC(=O)Oc1ccc(C(=O)NNC(=O)OC(C)(C)C)cc1OC(C)=O	78 to 82
O=C(Nc1ccc2cc(CN3CCCCC3)ccc2c1)N1CCC(c2ccc(Cl)cc2)CC1	231 to 232
CCN(CC)Cc1nc(-c2ncn3c2CN(C)C(=O)c2ccccc2-3)no1	153 to 154
COc1ccc2c(c1)CCc1cnc(N(C)c3cc(OC)c(OC)c(OC)c3)nc1-2	199 to 201
CCCCC(CC)COC(=O)C=CC(=O)NC(N)=O (configuration not stated)	73 to 76
CC(C)NC(=O)c1cc2ncn(C)c2c(Cl)c1NC(=O)c1cc(C(F)(F)F)nn1-c1ncccc1Cl	150 to 155

SMILES	melting point [°C]
Cc1cc2c(cn1)c(C#N)c(-c1ncc(S(=O)(=O)NC(C)C)cn1)n2C1CCC1	242 to 243
Cn1c(C(F)(F)F)cc(=O)n(-c2cc(S)c(Cl)cc2F)c1=O	132
Cn1nc(N2CCNCC2)c2ccccc21	100 to 102
CC1(C)Cc2c(Cl)c(N)cc(C(=O)O)c2O1	185 to 187
CC(=O)OCCOc1cnc(-c2ncc([N+](=O)[O-])n2C)nc1	148 to 150
O=C(NCCO)OCc1ccccc1	55 to 57
CN(C)C1CN(c2c(F)cc3c(=O)c(C(=O)O)cn(C4CC4)c3c2F)C1	256 to 260
CN1c2ccc(C=C(c3ccccc3)c3ccccc3)cc2Sc2cc(C=C(c3ccccc3)c3ccccc3)ccc21	233 to 241
NC(=O)[C@@H]1[C@H](Nc2c(Br)cnc3[nH]c(-c4ccc(N5CCOCC5)nc4)nc23)[C@H]2C=C[C@@H]1C2	288 to 290
CCCCCCCNC(=O)Nc1ccccc1N(C)C(=O)c1cc(C(C)(C)C)c(O)c(C(C)(C)C)c1	193 to 196
O=C(O)C(Cc1ccccc1)Oc1ccc(-c2ccc(-c3c(Cc4ccccc4)sc4ccccc34)cc2)cc1Br (configuration not stated)	81 to 83
N#CC1=C(c2cccs2)Nc2n[nH]cc2C1c1cccc2ccccc12 (configuration not stated)	214
Cc1cccc(-c2nccc(Cl)n2)c1	74 to 75
Cc1c(C)c2c(c(C)c1NC(=O)c1ccc(F)cc1)C(c1ccc(C(C)C)cc1)C(C)(C)O2 (single isomer, unassigned; (+))	251 to 253
CC(=O)c1ccc(C(=C2CC(C)(C)CC(C)(C)C2)c2ccc(O)cc2)cc1	195 to 196
CCC(c1ccncc1)N1CCCNS1(=O)=O (configuration not stated)	90 to 105
CCCCCCCCNC(=O)N1CCC(Oc2ccc(CCNC[C@H](O)COc3ccc(O)cc3)cc2)CC1	79 to 81
CC(Br)=C(c1ccc(N(C)C)cc1)c1ccc(N(C)C)cc1	119 to 122
Cc1ccc(-c2ccc(C(=O)Nc3ccc4cc(CN5CCCC5)cnc4c3C)c(F)c2)cc1	180 to 182

SMILES	melting point [°C]
O=C1N(Cc2ncccc2C(F)(F)F)c2c(F)cccc2C12COc1cc3c(cc12)OCCO3 (configuration not stated)	241 to 243
CC(C)c1ccc(C(O)C(=O)O)cc1 (configuration not stated)	156 to 157
COC1=Cc2ccccc2Nc2ccccc21	124
CC(C)(C)c1cc(CCC(=O)NCCNCCNCCNC(=O)CCc2cc(C(C)(C)C)c(O)c(C(C)(C)C)c2)cc(C(C)(C)C)c1O	80 to 110
CC(=O)Nc1ccc(C#CCCN2CC=C(c3ccccc3)CC2)cn1	169 to 170
CCON=C(C)c1cccc(S(N)(=O)=O)c1	157 to 158
C1=C(c2ccc(-n3ccnc3)cc2)CCNC1	150 to 153
CCCCNCCC(=O)Nc1ccc2c(c1)C(=O)c1cc(NC(=O)CCNCCCC)ccc1C2=O	168
COc1cc(C)cc2ncc(Br)n12	105 to 106
CC(=O)C1CCC2C3CCC4CC=CCC4(C)C3C(N)CC12C (configuration not stated)	127 to 129
CC(C)CCC1(c2ccccc2)CC=CC(=O)O1 (configuration not stated)	134 to 136
CNC[C@H]1CC[C@H](c2nc3ccccc3[nH]2)CC1	232 to 235
CN(Cc1ccc2c(c1)Nc1nccnc1S2)C(N)=C[N+](=O)[O-]	> 265
c1ccc2[nH]c(CN3CCOCC3)nc2c1	235 to 236
CN(C)C1(c2ccc(F)cc2)CCC(=O)CC1	128 to 133
Cc1nn(C)c(N)c1C#N	193 to 195
COc1cc(CC2NC(=O)NC2=O)cc(OC)c1OC (configuration not stated)	180 to 181
CCOC(=O)c1ccncn1	36.8

Next, values leading:

melting point [°C]	SMILES
236 to 237	Cc1cc2[nH]c(=O)c(C(=O)O)c(-c3ccccc3C)c2cc1C
182 to 184	CC(=O)OCCC1CCc2c(C3=C(c4cn(C)c5ccccc45)C(=O)OC3=O)c3ccccc3n2C1 (configuration not stated)
75 to 78	CCn1c(=O)oc2ccc(Cl)cc21
176 to 178	O=C(C=Cc1ccc(S(=O)(=O)Nc2ccccc2)cc1)NO
103 to 106	Cc1c(OCc2ccccc2)c(=O)ccn1CCOC(=O)C(C)(C)C
147 to 148	CCCCn1c(=O)n(OCc2ccccc2)c(=O)c2cc(F)c(Cl)nc21
71.8 to 73.1	CCOC(=O)CC(=O)c1cc(Cl)ccc1O
213 to 215	COc1cc(OC)nc(C2(OC(C)=O)OC(=O)c3c(Cl)cccc32)n1 (configuration not stated)
131 to 133	CCN(CC)CCN(C)CCC1CCCCN1C(=O)N1c2ccccc2NC(=O)c2csc(C)c21 (configuration not stated)
347	O=C(c1n[nH]c2c(=O)[nH]c3cc(Cl)ccc3c(=O)c12)N1CCOCC1
181 to 183	O=C1Cc2ccccc2-c2cc(-c3ccccc3)nn21
110 to 112	c1coc(CN2CC3(COc4cc5c(cc43)OCO5)c3ccccc32)c1 (configuration not stated)
65 to 68	CC(=O)N1CCCc2ccc(C(C)NC(=O)C=Cc3ccccc3)cc21 (configuration not stated)
125 to 132	CC(C)C(NC(=O)C(C)(N)c1ccc2ccccc2c1)C(=O)Nc1nn(C(=O)OCc2ccccc2)c(=S)s1 (configuration not stated)
128 to 130	O=C(O)CCc1ccc2c(c1)C(=O)c1ccccc1CO2
125 to 128	CNC(=O)N(O)C(C)c1ccc(OCc2ccccc2)cc1 (configuration not stated)
80 to 81	CCN(CC)C(=O)c1ccc(OCCCl)cc1
113 to 115	CC1(C)CC(N(CCCCO)S(C)(=O)=O)c2cc(OCc3ccccc3)ccc2O1 (configuration not stated)
174 to 176	Cn1c(COc2ccc(CC3SC(=O)NC3=O)cc2)cc2ccccc21 (configuration not stated)
198 to 199	O=C(Cc1ccccc1C(=O)O)Nc1cccc(/C=C/c2csc(C3CCC3)n2)c1
317 to 318	Cn1cc(C(N)=O)c(=O)c2ccc(F)cc21

melting point [°C]	SMILES
157 to 158	CCOC(=O)C(CC(=O)c1ccccc1Cl)(NC(C)=O)C(=O)OCC
72 to 74	COC(=O)C=C(Nc1cc(CCO)c([N+](=O)[O-])cc1OCc1ccccc1)C(F)(F)F
179 to 180	COCCn1c(=O)ccc2cnc(Nc3ccccc3)nc21
165	CCc1cc2ccccn2c1C(=O)c1ccc(OS(=O)(=O)c2ccc(C)cc2)cc1
130 to 132	COC(=O)C1=C(C)NC(C)=C(C(=O)OCCCCCCCCCCCN2C(=O)c3ccccc3C2=O)C1c1cccc([N+](=O)[O-])c1 (configuration not stated)
167 to 168	CCN(CC)C(=O)Cc1nn(-c2ccccc2)c(=O)c2c1c1ccc(Cl)cc1n2C
167 to 168	COCCNCCC(=O)Nc1nc(-c2ccccc2)c(-c2ccc(=O)n(C(C)C)n2)s1
148 to 151	COc1ccc2c(C3NCCc4ccccc43)c(O)ccc2c1 (configuration not stated)
134 to 135	CCOC(=O)C(=C1SCSCS1)c1ccc(Oc2ccccc2)cc1
166 to 169	Cn1nc(-c2ccc(S(C)(=O)=O)cc2)c(-c2ccc(F)cc2)c1C(F)(F)F
130 to 131	Cc1cc2c(ccc3ccsc32)c2ccccc12
236 to 238	COC(=O)COc1ccc2cc(-c3cnc(Cc4ccccc4)o3)ccc2c1
135 to 136	C=CCc1c(OC)c(=O)[nH]c2cc(Cl)ccc2c1=O
235 to 237	CCC(C)c1ccc(-n2c(-c3cc(C)c(OCCO)c(C)c3)nc3cc(S(C)(=O)=O)ccc3c2=O)cc1 (configuration not stated)
263 to 264	CCOC(=O)Cc1ccc(Cc2n[nH]c3c2c(=O)n(-c2ccccc2)c2ncccc32)cc1
193 to 194	COC(=O)c1[nH]c2c(C)ccc(C)c2c1-c1nc2ccccc2s1
251 to 253	O=C1Nc2cccc(-c3cccc(NC(=O)c4cccc(Br)c4)c3)c2/C1=C/c1ccc[nH]1
244	O=C(NCC(=O)N(c1ccccc1)c1ccccc1)Nc1cccc(O)c1
189 to 190	O=C(O)CC(CC(=O)O)NC(=O)OCC1c2ccccc2-c2ccccc21
> 300	NC(=O)c1cc(-c2ccccc2)n[nH]c1=O
